Measured values as given in patent US12234257B2, “Triterpene saponin derivative and use thereof” (KOREA INSTITUTE OF SCIENCE AND TECHNOLOGY, priority 2020, dated 2025).
“Also recorded” adds a separate entry of the source.

Columns and labels:
Type in all cases: cell-based, human
[1] = test system: GFP-RFP-LC3-II puncta in SH-SY5Y cells; assay: Tandem fluorescent protein quenching assay (RFP-GFP-LC3); conditions: transfected SH-SY5Y cells, AKNS-2 10 μM + Baf 100 nM
Procedure: SH-SY5Y cells were cultured in a 24-well plate at a density of 8×10^4 cells/well on a glass cover slip. Transfection was performed in accordance with guidelines of the autophagy tandem RFP-GFP-LC3B kit. After culturing the cells for 24 hours, the cells were treated with an LC3B reagent. After the transfected cells were incubated for 24 hours, 50 nM Wart or 100 nM Baf was administered thereto, and then AKNS-2 (10 μM) was added thereto. The cells were immobilized with 4% paraformaldehyde and permeabilized with 0.1% Triton X100. Nuclei thereof were stained with 4,6-diamidino-2-phenylindole (DAPI, 25 μg/mL). Fluorescent signals were detected using a confocal microscope (Leica, Solms, Germany).

SH-SY5Y cells = assay: MTT assay to measure cell viability
Procedure: Cell viability was detected using an MTT assay kit (Z-Cytox). Briefly, the SH-SY5Y cells were seeded on a 96-well plate at a density of 2×10^4 cells/well with 100 μL of a culture medium. After 24 hours, the SH-SY5Y cells were treated with AKNS-2 and/or MPP^+ having desired concentrations to identify cytotoxicity of AKNS-2 and MPP^+. After 24 hours, 10 μL of the MTT reagent was added to each well of the 96-well plate including the cells. Absorbance was measured at 450 nm using a microplate spectrophotometer (BioTek, Vt., USA). […] The next day, absorbance was measured at 1 hour after adding the MTT reagent thereto.

[2] = test system: LC3, p62, TH and α-synuclein in SH-SY5Y cells; assay: Western blot of LC3, p62, TH and α-synuclein in MPP^+-treated SH-SY5Y cells (in vitro PD model)
Procedure: (§1) Human neuroblastoma (SH-SY5Y) cells were purchased from the American Type Culture Collection (Manassas, Va., USA) and cultured in DMEM supplemented with 10% heat-inactivated FBS and 1% penicillin/streptomycin. The SH-SY5Y cells were cultured at 37° C. in a humid atmosphere containing 5% CO2. […] The SH-SY5Y cells were transfected with AMPK siRNA and then administered with AKNS-2 at 36 hours after siRNA transfection. […] After 24 hours from treatment with the samples, the SH-SY5Y cells were recovered and used for subsequent analysis. At 24 hours after drug treatment, the culture medium was removed from the 6-well plate, and the cells were gently washed once with cold saline. Subsequently, 1 mL of cold saline was added to each well, and cells attached to the bottom were floated by rubbing the bottom with a 1 mL pipette. The suspension was collected in a 1.5 mL tube and centrifuged at 4° C. at 13000×g for 5 minutes. After removing a supernatant, 50 μL of a RIPA lysis buffer including a protease inhibitor cocktail (Roche, Mannheim, Germany) and purchased from Cell Signaling Technology (Danvers, Mass., USA) was added to the cell pellet. After shaking the mixture at 4° C. for 30 minutes, the obtained cells were centrifuged at 4° C. at 13000×g for 20 minutes. A supernatant was collected therefrom, and a concentration of proteins was measured using a standard curve constructed using BSA by the Bradford method. Then, the supernatant was diluted with a loading buffer and heated at 99° C. for 5 minutes. Resultant cells were used in a subsequent western blot analysis. Protein markers contained in lysates of the SH-SY5Y cells and brain tissue of the mice (SNpc and ST) were measured by western blot analysis. Briefly, after determining a concentration, a protein sample (20 μg) was separated by 8%, 10%, or 15% sodium dodecyl sulfate-polyacrylamide gel electrophoresis (SDS-PAGE). Then, proteins separated on the gel were transferred to a polyvinylidene fluoride (PVDF) membrane for 45 minutes using a Trans-Blot Turbo Transfer System (Bio-Rad, USA). […] The membrane was further incubated with monoclonal primary antibodies derived from rabbits (anti-GAPDH, anti-AMPK, anti-p-AMPK, anti-ULK, anti-p-ULK555, anti-Erk, anti-p-Erk, anti-mTOR, anti-p-mTOR, anti-LC3B, anti-TH, and anti-α-synuclein antibodies). The primary antibodies were diluted in a blocking buffer at a ratio of 1:1000 and incubated overnight at 4° C. On the second day, the membrane was washed with TBST three times (10 minutes each) and incubated at room temperature in a horseradish peroxidase-conjugated goat anti-rabbit IgG secondary antibody (diluted in a blocking buffer at a ratio of 1:2000). After incubating in the secondary antibody for 1 hour, the membrane was washed for 30 minutes. The protein blots on the membrane were developed using an ECL detection kit and visualized using an LAS-4000 mini system (Fujifilm, Japan). The intensity of the protein blots was quantified using Multi Gauge software (Fujifilm, Japan).

[3] = test system: autophagy-related protein markers (LC3-II, p62, p-AMPK, p-Erk, p-ULK, p-mTOR) in SH-SY5Y cells; assay: Western blot of autophagy-related protein markers in SH-SY5Y cells
Procedure: as §1

[4] = 10 μM U0126 30 minutes before AKNS-2 (5 μM and 10 μM)
[5] = 3-MA 5 mM 30 minutes before AKNS-2 10 μM

CO/C1=C\C(C)=C\[C@@H](C)[C@@H](O)[C@@H](C)C/C(C)=C/C=C/[C@H](OC)[C@@H]([C@@H](C)[C@@H](O)[C@H](C)[C@@]2(O)C[C@@H](O)[C@H](C)[C@@H](C(C)C)O2)OC1=O [Baf, bafilomycin A1]
AKNS-2-enhanced accumulation of LC3-II puncta with bafilomycin A1 [1]: increased green fluorescence and decreased red fluorescence | AKNS-2-enhanced accumulation of LC3-II puncta with bafilomycin A1 ([1]; listed as bafilomycin A1): AKNS-2-induced autophagy is inhibited

C[n+]1ccc(-c2ccccc2)cc1.[I-] [MPP^+, 1-methyl-4-phenylpyridinium (MPP^+) iodide, reference compound]
cell viability (MTT) (SH-SY5Y cells; MPP^+ alone, 2 mM): significantly decreased cell viability

N#CC(=C(/N)Sc1ccccc1N)/C(C#N)=C(\N)Sc1ccccc1N [Compound U0126, reference compound]
AKNS-2 effect on α-synuclein in presence of U0126 ([2]; 10 μM U0126 + AKNS-2 + 2 mM MPP^+): the protective effects were blocked | AKNS-2 effect on TH expression in presence of U0126 ([2]; 10 μM U0126 before AKNS-2 and 2 mM MPP^+): the effects of AKNS-2 on increasing the expression of TH were inhibited | protective effect of AKNS-2 on cell viability in presence of U0126 (SH-SY5Y cells; 10 μM U0126 + AKNS-2 (5 μM and 10 μM) + 2 mM MPP^+): cancels out protective effects of AKNS-2 on cell viability; also recorded: such enhancement was canceled out | AKNS-2-induced LC3-II expression in presence of U0126 [3, 4]: a significant decrease was observed in the expression of LC3-II; also recorded: blocked the effects of AKNS-2 (5 μM and 10 μM) on increasing the expression of LC3-II | AKNS-2-inhibited p-mTOR expression in presence of U0126 [3, 4]: considerably restored | AKNS-2-increased p-ULK expression in presence of U0126 ([3]; 10 μM U0126 + AKNS-2 10 μM): canceled out the effects of AKNS-2 (10 μM) on an increase in expression of p-ULK

Cn1cnc(N)c2ncnc1-2 [Compound 3-MA, 3-methyladenine, reference compound]
AKNS-2 effect on TH expression in presence of 3-MA ([2]; 3-MA + AKNS-2 + MPP^+): advantageous effects of AKNS-2 were canceled out | expression of LC3-II with 3-MA ([2]; 3-MA vs group co-administered with AKNS-2 and MPP^+): significantly inhibited the expression of LC3-II | AKNS-2-decreased p62 expression in presence of 3-MA [3, 5]: increases p62 expression; also recorded: remarkably blocked the inhibitory effects of AKNS-2 on the expression level of p62 | AKNS-2-up-regulated LC3-II expression in presence of 3-MA [3, 5]: decreases LC3-II expression; also recorded: the increased expression was significantly decreased
